Usually melting point stands for the temperature, or range, at which the solid turns liquid.

These results are taken from patent US7166598B2, “Piperazine derivatives” (Astellas Pharma Inc., priority 1998, dated 2007).

`COc1cc(C(=O)N2CCN(Cc3cccnc3)C[C@H]2Cc2ccc(Cl)cc2)cc(C(F)(F)F)c1.Cl.Cl`: the melting point lay within 60 to 80 °C.

On to `COc1cc(C(=O)N2CCN(Cc3cnn(C)c3)C[C@H]2Cc2ccc(F)cc2)cc(C(F)(F)F)c1.Cl`, for which the melting point lay in the range of 225.6 to 228.4 °C.

As for `Cl.Cl.O=C(c1cc(C(F)(F)F)cc(C(F)(F)F)c1)N1CCN(Cc2cccnc2)C[C@H]1Cc1ccc2ccccc2c1`, the melting point fell in the range of 198 to 208 °C.

With `COc1cc(C(=O)N2CCN(Cc3cccnc3)C[C@H]2Cc2ccc(Cl)c(O)c2)cc(C(F)(F)F)c1.Cl.Cl`, the melting point lay in the range of 215 to 224 °C.

Consider `COC[C@@H]1CN(CCCN2CCN(C(=O)c3cc(C(F)(F)F)cc(C(F)(F)F)c3)[C@H](Cc3ccc(C)c(O)c3)C2)CCO1.Cl.Cl`, for which the melting point is 150 to 170 °C.

`Cc1ccc(C[C@@H]2CN(C/C=C\c3cccnc3)CCN2C(=O)c2cc(C(F)(F)F)cc(C(F)(F)F)c2)cc1O.Cl.Cl` displayed a melting point of 85 to 130 °C.

In turn, `CN(C)S(=O)(=O)c1cc(C(=O)N2CCN(CCN3CCc4ncccc4C3)C[C@H]2Cc2ccc(Cl)cc2)cc(C(F)(F)F)c1.Cl.Cl.Cl` registered a melting point of 209 to 226 °C.

Molecule `COC[C@@H]1CN(CCN2CCN(C(=O)c3cc(C(F)(F)F)cc(C(F)(F)F)c3)[C@H](Cc3ccc(C)c(N4CCCC4)c3)C2)CCO1.Cl.Cl.Cl` showed a melting point of 160 to 165 °C.

As to `COC[C@@H]1C[C@@H](OC)CN1CCN1CCN(C(=O)c2cc(C(F)(F)F)cc(C(F)(F)F)c2)[C@H](Cc2ccc(F)c(OC)c2)C1.Cl.Cl`, the melting point fell in the range of 128 to 134 °C.

`COC[C@H]1CN(CCN2CCN(C(=O)c3cc(C(F)(F)F)cc(C(F)(F)F)c3)[C@H](Cc3ccc(F)c(OC)c3)C2)CCO1.Cl.Cl` showed a melting point of 139 to 148 °C.

`COc1cc(C[C@@H]2CN(CCN3C[C@@H](C)O[C@@H](C)C3)CCN2C(=O)c2cc(SC)cc(C(F)(F)F)c2)ccc1F.Cl.Cl` registered a melting point of 62.5 to 82.4 °C.

Turning to `COC[C@@H]1CN(CCN2CCN(C(=O)c3cc(Cl)cc(C(F)(F)F)c3)[C@H](Cc3ccc(F)c(OC)c3)C2)CCO1.Cl.Cl`, the melting point lay within 139 to 142 °C.

On to `COC[C@@H]1CN(CCN2CCN(C(=O)c3cc(SC)cc(C(F)(F)F)c3)[C@H](Cc3ccc(Cl)cc3)C2)CCO1.Cl.Cl`, for which the melting point was in the range of 140 to 146 °C.

Consider `COc1cc(C(=O)N2CCN(CC#CCN3CCOCC3(C)C)C[C@H]2Cc2ccc(Cl)c(O)c2)cc(C(F)(F)F)c1.Cl.Cl`, for which the melting point lay in the range of 187 to 195 °C.

The molecule `Cl.Cl.O=C(c1cc(C(F)(F)F)cc(C(F)(F)F)c1)N1CCN(CCN2CCC(F)(F)CC2)C[C@H]1Cc1ccc(F)c(O)c1` returned a melting point of 190 to 200 °C.

`Cl.Cl.O=C(c1cc(C(F)(F)F)cc(C(F)(F)F)c1)N1CCN(CCCc2cccnc2)C[C@H]1Cc1ccc(F)c(F)c1`: the melting point was in the range of 215 to 220 °C.

Molecule `C[C@@H]1CN(CCN2CCN(C(=O)c3cc(C(F)(F)F)cc(C(F)(F)F)c3)[C@H](Cc3ccc(C(F)(F)F)cc3)C2)C[C@H](C)O1.Cl.Cl` yielded a melting point of 148 to 159 °C.

Molecule `COc1cc(C(=O)N2CCN(CCN3C[C@@H](C)O[C@@H](C)C3)C[C@H]2Cc2ccc(C(F)(F)F)cc2)cc(C(F)(F)F)c1.Cl.Cl` returned a melting point of 139 to 151 °C.

Turning to `COC[C@@H]1CN(CCN2CCN(C(=O)c3cc(C(F)(F)F)cc(C(F)(F)F)c3)[C@H](Cc3ccc(Cl)cc3)C2)CCO1.Cl.Cl`, the melting point was 90 to 120 °C.

On to `COC[C@@H]1CN(CCN2CCN(C(=O)c3cc(OC)cc(C(F)(F)F)c3)[C@H](Cc3ccc(Cl)cc3)C2)CCO1.Cl.Cl`, for which the melting point lay in the range of 70 to 90 °C.

Molecule `C[C@@H]1CN(CCN2CCN(C(=O)c3cc(C(F)(F)F)cc(C(F)(F)F)c3)[C@H](Cc3ccc(F)cc3)C2)C[C@H](C)O1.Cl.Cl` gave a melting point of 89 to 110.2 °C.

`COC[C@@H]1CN(CCN2CCN(C(=O)c3cc(OC)cc(C(F)(F)F)c3)[C@H](Cc3ccc(Cl)c(O)c3)C2)CCO1.Cl.Cl` gave a melting point of 160 to 168 °C.
